These results are taken from PMC6560211, “ApoAI-derived peptide increases glucose tolerance and prevents formation of atherosclerosis in mice” (Diabetologia, 2019).

One assay concerns Lepr db (db/db) mice. Put plainly: GTT in db/db mice. Conditions: db/db 5.5 weeks. Format: in vivo, mouse. As to the method: (§1) Male C57BL/6NTac mice (Taconic, Ejby, Denmark) at 8–9 weeks of age were acclimatised for 1 week on a normal chow diet, then changed to a high-fat diet for 2 weeks (diet-induced obesity; DIO), followed by GTT as indicated. Male Lepr^db (db/db) mice on a BKS background (Taconic) at 5 weeks of age were maintained on a normal chow diet and GTTs were performed at 5.5 and 14 weeks of age as indicated. Blood glucose levels were measured in fresh blood (C57: OneTouch Ultra2, Lifescan, Milpitas, CA, USA; db/db: GlucoSmart Swing, MSP bodmann, Bobingen, Germany) and insulin levels were assayed in serum using ELISA (Mercodia) at the times indicated in ESM Fig. 2. See ESM Methods for more details.
(§2) Fig. 4 Acute treatment with RG54 improves glucose tolerance during GTTs in three models of type 2 diabetes. Male C57Bl/6 mice fed a high-fat diet for 2 weeks (a–d) or db/db mice at 5.5 (e–h) or 14 (i–l) weeks old were fasted overnight, then treated with a single i.p. injection of NaCl (negative control, 200 μl; C57, n=12; db/db 5.5 weeks, n=6; db/db 14 weeks, n=6), liraglutide (0.1 mg/kg; C57, n=11; db/db 5.5 weeks, n=6; db/db 14 weeks, n=6), ApoA-I (14 mg/kg; C57, n=12; db/db 5.5 weeks, n=6; db/db 14 weeks, n=6) or RG54 (12 mg/kg; C57, n=12; db/db 5.5 weeks, n=6; db/db 14 weeks, n=5). After a further 3 h, mice received an i.p. glucose load (40 mg/mouse for C57; 50 mg/mouse for db/db) followed by blood and plasma collection at the indicated times, and blood glucose (a,e,i) and plasma insulin (b,f,j) concentrations were determined. Total AUC was calculated (mmol/l × min for glucose, pmol/l × min for insulin) and then normalised to the average value of the relevant NaCl control group to give relative AUC (% control) for glucose (c,g,k) and insulin (d,h,l). Values are means ± SEM. *p≤0.05, **p≤0.01, ***p≤0.001 vs NaCl control […]
We next used type 2 diabetes models with a more advanced phenotype: db/db mice at 5.5 and 14 weeks of age.
At 14 weeks of age, mice were markedly obese with a mean ± SEM body weight of 55.3 ± 0.6 g. […] One mouse was excluded from RG54 treatment group because of very high residual insulin secretion prior to the experiment.
Male C57BL/6NTac mice were purchased from Taconic (Ejby, Denmark) at 8-9 weeks of age, acclimatised for one week on normal chow diet, then changed to a High-Fat Diet (HFD; Research Diets D12492, 60% fat content) for 2 weeks, followed by glucose tolerance testing (GTT) with timings as indicated (ESM Figure 2). Male Leprdb mice (db/db) on BKS background purchased from Taconic (BKS.Cg-m+/+Leprdb/BomTac, Ejby, Denmark) at 5 weeks of age were maintained on normal chow diet and GTTs were performed at 5.5 and 14 weeks of age with timings as indicated (ESM Figure 2). For the GTTs, mice fasted overnight (9 h) were injected with the appropriate treatment, and after an additional 3 h given ip glucose (C57: 40 mg/mouse; db/db: 50 mg/mouse) followed by collection of serum samples at the indicated times. Blood glucose levels were measured in fresh blood (C57: OnetouchUltra2, Lifescan; db/db: GlucoSmart Swing, MSP bodmann) and insulin levels were assayed in serum using ELISA (Mercodia). db/db mice were independently randomized to treatments groups for GTT at each time point as no carry over was expected between experiments due to the acute nature of the treatment effects. Primary outcomes were blood glucose and insulin measurements during the GTT. C57BL/6NTac mice were euthanized immediately after each experiment whereas db/db were euthanized immediately after the GTT at 14 weeks of age. […]
and reproducible clinical symptoms of diabetes than females in these models [5; 6] thus ensuring the reproducibility of clinical symptoms between animals within the study. […]

The next assay deals with DIO C57BL/6NTac mice. Put plainly: GTT in diet-induced obesity (DIO) mice. Format: in vivo, mouse. Particulars: for fasting glucose levels / fasting insulin levels / insulin sensitivity as measured by QUICKI: DIO mice, 3 h treatment, i.p. As to the method:
as §1
The effect of RG54 peptide on glucose disposal was investigated in an established insulin-resistant mouse model. DIO mice were fasted for 9 h followed by a single i.p. dose of RG54 (12 mg/kg), ApoA-I (14 mg/kg), liraglutide (0.1 mg/kg), or an equal volume of NaCl solution. After a further 3 h fasting period, GTTs were performed (Fig. 4a,b).
as §2
We directly compared the i.p. and s.c. injection routes in DIO mice. DIO mice were fasted for 9 h, followed by a single i.p. or s.c. injection of RG54 (12 mg/kg), ApoA-I (14 mg/kg), or an equal volume of NaCl solution. After a further 3 h fasting and incubation period, GTTs were performed. […] Finally, we assessed the dose response of s.c. RG54 to find treatment concentrations with full or partial effects on glycaemic control as compared with our positive control (Fig. 6).
Male C57Bl/6 mice fed a high-fat diet for 2 weeks were fasted overnight, then treated with a single i.p. or s.c. injection of NaCl (negative control, 200 μl, n=6), ApoA-I (14 mg/kg, n=6) or RG54 (12 mg/kg, n=6). After a further 3 h, all mice received an i.p. glucose load (40 mg/mouse) followed by blood and plasma collection at the indicated times, and blood glucose (a,b) and plasma insulin (d,e) concentrations were determined for all injection routes. Total AUC was calculated (mmol/l × min for glucose, pmol/l × min for insulin) and then normalised to the average value of the relevant NaCl control group to give relative AUC (% control) for glucose (c) and insulin (f). Values are means ± SEM. ***p≤0.001 vs NaCl control […]
Male C57BL/6NTac mice were purchased from Taconic (Ejby, Denmark) at 8-9 weeks of age, acclimatised for one week on normal chow diet, then changed to a High-Fat Diet (HFD; Research Diets D12492, 60% fat content) for 2 weeks, followed by glucose tolerance testing (GTT) with timings as indicated (ESM Figure 2). Male Leprdb mice (db/db) on BKS background purchased from Taconic (BKS.Cg-m+/+Leprdb/BomTac, Ejby, Denmark) at 5 weeks of age were maintained on normal chow diet and GTTs were performed at 5.5 and 14 weeks of age with timings as indicated (ESM Figure 2). For the GTTs, mice fasted overnight […]

Assay [1] is described as follows: rHDL formation, particle size by DLS. Conditions: 1:100 protein:lipid molar ratio, extruded 100 nm MLVs, 4 days (96 h), 24°C. As to the method: 1,2-dimyristoyl-sn-glycero-3-phosphocholine (DMPC; Avanti Polar Lipids, Alabaster, AL, USA) was formed into 100 nm multilamellar vesicles (MLV) via extrusion using the LiposoFast system (Avestin, Ottawa, ON, Canada) as previously described. MLV were incubated with RG54 or ApoA-I at the indicated ratios for 4 days at 24°C to form rHDL. The resulting particle sizes were measured by dynamic light scattering (DLS) using a Zetasizer APS (Malvern Instruments, Uppsala, Sweden).
The reduced initial rate may be due to a more complex binding pattern of the larger number of RG54 peptides needed per formed particle: four to five RG54 molecules (54 amino acids each) are needed to make up the size of full-length ApoA-I (243 amino acids). A qualitative assessment of particle formation was therefore next used to evaluate and compare the sizes of formed rHDL. The hydrodynamic diameters of lipid–protein complexes formed after extended incubation (96 h) of RG54 or ApoA-I with extruded 100 nm MLVs were estimated using DLS.
ESM Figure 4. Lipid clearance and peptide-lipid complex formation activity of RG54 compared with full-length ApoA-I. […]

Take `CCCCCCCCCCCCCCCC(=O)N[C@@H](CCC(=O)NCCCC[C@H](NC(=O)[C@H](C)NC(=O)[C@H](C)NC(=O)[C@H](CCC(N)=O)NC(=O)CNC(=O)[C@H](CCC(=O)O)NC(=O)[C@H](CC(C)C)NC(=O)[C@H](Cc1ccc(O)cc1)NC(=O)[C@H](CO)NC(=O)[C@H](CO)NC(=O)[C@@H](NC(=O)[C@H](CC(=O)O)NC(=O)[C@H](CO)NC(=O)[C@@H](NC(=O)[C@H](Cc1ccccc1)NC(=O)[C@@H](NC(=O)CNC(=O)[C@H](CCC(=O)O)NC(=O)[C@H](C)NC(=O)[C@@H](N)Cc1c[nH]cn1)[C@@H](C)O)[C@@H](C)O)C(C)C)C(=O)N[C@@H](CCC(=O)O)C(=O)N[C@@H](Cc1ccccc1)C(=O)N[C@H](C(=O)N[C@@H](C)C(=O)N[C@@H](Cc1c[nH]c2ccccc12)C(=O)N[C@@H](CC(C)C)C(=O)N[C@H](C(=O)N[C@@H](CCCNC(=N)N)C(=O)NCC(=O)N[C@@H](CCCNC(=N)N)C(=O)NCC(=O)O)C(C)C)[C@@H](C)CC)C(=O)O` [liraglutide, reference compound]: in the assay on Lepr db (db/db) mice (liraglutide 0.1 mg/kg i.p.), the “insulin secretion at the 15-min time point” value was “modest, transient increase” and the “overall insulin AUC” value is “not increased”. In the assay on DIO C57BL/6NTac mice, the fasting glucose levels result was “significantly lowered”, the fasting insulin levels entry is “no concomitant increase” and the “insulin sensitivity as measured by QUICKI” value (from here on “insulin sensitivity”) is listed as “no change”.
For the compound “ApoA-I: Recombinant human ApoA-I, full-length (243 amino acids), used as control”, in the assay with Lepr db (db/db) mice (3 h treatment, i.p.), the fasting glucose levels entry is “significantly lowered”, the fasting insulin secretion entry is on record as “no significant changes” and the “insulin sensitivity” value is “no concomitant change”. Moreover, the “lipid-protein complexes formed (DLS frequency plots)” value in assay [1] is listed as “single peaks corresponding to rHDL particles”. In addition, in the assay on DIO C57BL/6NTac mice, the fasting glucose levels entry was “significantly lowered”, the fasting insulin levels entry is listed as “no concomitant increase” and the “insulin sensitivity” value is given as “no change”. For the same compound, in the assay on DIO C57BL/6NTac mice (route comparison, i.p. injection, RG54 12 mg/kg, ApoA-I 14 mg/kg, n=6), the “insulin secretion in GTT” value is given as “increased insulin secretion”.
